Data: patent publication US10961228B2, “JAK1 selective inhibitors” (AstraZeneca AB, priority 2017, dated 2021)

How the values were obtained:
[1] = test system: IL-13 induced STAT6 promotor luciferase reporter in U937 monocytes (U937-STAT6-Luc); assay: Cellular interleukin (IL-13) induced JAK-STAT6-luciferase assay (pSTAT6); assay type: cell-based; conditions: Homo sapiens, U-937; IL-13 induced STAT6-luciferase, U937-STAT6-Luc cells
In short: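 U937 STAT6-luciferase reporter cells in HEPES/HBSS/0.1% BSA buffer, pretreated with serially diluted compounds (10 mM to 0.5 nM DMSO stocks) and stimulated with IL-13. Incubation 4½ h at 37 °C then 30 min at room temperature; SteadyGlo luminescence read.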

[2] = target: recombinant JAK1 (amino acids 866-1154) (Homo sapiens (Human), UniProt P23458); assay: Enzyme inhibition studies, JAK1 (5 mM ATP, Caliper); assay type: biochemical
In short: (§1)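 N-terminal GST-fused kinase domains from insect cells, run at 5 mM ATP with inhibitor at 30, 3, 0.3, 0.03, 0.003 and 0 μM final.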

[3] = target: recombinant JAK3 (amino acids 781-1124) (Homo sapiens (Human), UniProt P52333); assay: Enzyme inhibition studies, JAK3 (5 mM ATP, Caliper); assay type: biochemical
In short: as §1

[4] = target: recombinant JAK2 (amino acids 831-1132) (Homo sapiens (Human), UniProt O60674); assay: Enzyme inhibition studies, JAK2 (5 mM ATP, Caliper); assay type: biochemical
In short: as §1

Chain of recombinant JAK2 (amino acids 831-1132) (O60674 831-1132): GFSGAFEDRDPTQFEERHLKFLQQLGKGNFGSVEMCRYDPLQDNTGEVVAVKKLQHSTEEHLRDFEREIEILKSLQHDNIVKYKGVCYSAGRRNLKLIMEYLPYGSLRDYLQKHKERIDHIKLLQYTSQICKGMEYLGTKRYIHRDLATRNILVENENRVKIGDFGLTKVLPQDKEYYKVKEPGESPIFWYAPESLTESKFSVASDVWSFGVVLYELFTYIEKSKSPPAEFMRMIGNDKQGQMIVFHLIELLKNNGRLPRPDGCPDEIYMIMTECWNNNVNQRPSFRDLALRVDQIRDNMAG
Chain of recombinant JAK1 (amino acids 866-1154) (P23458 866-1154): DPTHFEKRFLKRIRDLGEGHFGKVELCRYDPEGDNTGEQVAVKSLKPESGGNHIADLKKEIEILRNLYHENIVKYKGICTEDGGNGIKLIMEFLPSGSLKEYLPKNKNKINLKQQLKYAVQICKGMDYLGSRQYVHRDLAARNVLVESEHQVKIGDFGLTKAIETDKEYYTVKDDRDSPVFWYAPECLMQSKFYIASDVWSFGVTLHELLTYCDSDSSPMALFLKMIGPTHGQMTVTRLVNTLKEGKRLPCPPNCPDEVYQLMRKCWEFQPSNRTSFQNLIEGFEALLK
Chain of recombinant JAK3 (amino acids 781-1124) (P52333 781-1124): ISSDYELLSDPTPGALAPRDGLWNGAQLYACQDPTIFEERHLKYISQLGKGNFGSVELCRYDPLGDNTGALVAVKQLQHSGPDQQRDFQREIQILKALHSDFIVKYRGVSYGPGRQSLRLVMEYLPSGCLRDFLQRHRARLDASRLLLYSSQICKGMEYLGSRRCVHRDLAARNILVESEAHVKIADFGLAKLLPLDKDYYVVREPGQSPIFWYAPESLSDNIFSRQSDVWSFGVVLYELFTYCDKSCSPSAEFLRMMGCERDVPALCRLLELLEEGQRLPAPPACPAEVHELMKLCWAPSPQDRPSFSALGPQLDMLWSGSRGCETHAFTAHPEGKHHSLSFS

Q: How did the IC50 [1] turn out when `CC[C@H](C(=O)Nc1cccc2c(-c3nc(Nc4cccc(S(C)(=O)=O)c4F)ncc3F)c[nH]c12)N1CCN(C)CC1` [Example 38] was run?
A: 42.6 nM

Q: What about the IC50 [2] of the same compound?
A: 3.3 nM

Q: And the IC50 [3]?
A: > 30000 nM

Q: And the IC50 [4]?
A: 6870 nM

Q: Which results are given for `CC[C@@H](C(=O)Nc1cccc2c(-c3nc(Nc4cccc(S(C)(=O)=O)c4F)ncc3F)c[nH]c12)N1CCN(C)CC1` [Example 39, (S)-N-(3-(5-fluoro-2-((2-fluoro-3-(methylsulfonyl)phenyl)amino)pyrimidin-4-yl)-1H-indol-7-yl)-2-(4-methylpiperazin-1-yl)butanamide]?
A: IC50 [1]: 446 nM; IC50 [2]: 256 nM; IC50 [3]: > 30000 nM; IC50 [4]: > 30000 nM

Q: How did the IC50 [1] turn out when `COC[C@@H](C(=O)Nc1cccc2c(-c3nc(Nc4cccc(S(C)(=O)=O)c4F)ncc3F)c[nH]c12)N1C[C@H](C)N(C)[C@@H](C)C1` [Example 40] was run?
A: > 6250 nM

Q: What about the IC50 [2] of the same compound?
A: 3280 nM

Q: What about the IC50 [3] of the same compound?
A: > 30000 nM

Q: And the IC50 [4]?
A: > 30000 nM

Q: `COC[C@H](C(=O)Nc1cccc2c(-c3nc(Nc4cccc(S(C)(=O)=O)c4F)ncc3F)c[nH]c12)N1C[C@H](C)N(C)[C@@H](C)C1` [Example 41, (R)-N-(3-(5-fluoro-2-((2-fluoro-3-(methylsulfonyl)phenyl)amino)pyrimidin-4-yl)-1H-indol-7-yl)-3-methoxy-2-((3S,5S)-3,4,5-trimethylpiperazin-1-yl)propanamide] was tested. Which IC50 [1] did it give?
A: 58 nM

Q: And the IC50 [2]?
A: 3.95 nM

Q: What about the IC50 [3] of the same compound?
A: > 30000 nM

Q: What about the IC50 [4] of the same compound?
A: 4820 nM

Q: How did the IC50 [1] turn out when `COC[C@H](C(=O)Nc1cccc2c(-c3nc(Nc4cccc(S(C)(=O)=O)c4F)ncc3C)c[nH]c12)N1CCCN(C)CC1` [Example 42, (R)-N-(3-(2-((2-fluoro-3-(methylsulfonyl)phenyl)amino)-5-methylpyrimidin-4-yl)-1H-indol-7-yl)-3-methoxy-2-(4-methyl-1,4-diazepan-1-yl) propanamide] was run?
A: 36 nM

Q: What about the IC50 [2] of the same compound?
A: < 3 nM

Q: What about the IC50 [3] of the same compound?
A: > 30000 nM

Q: What about the IC50 [4] of the same compound?
A: 604 nM

Q: Which IC50 [1] does the source give for `COC[C@@H](C(=O)Nc1cccc2c(-c3nc(Nc4cccc(S(C)(=O)=O)c4F)ncc3C)c[nH]c12)N1CCCN(C)CC1` [Example 43, (S)-N-(3-(2-((2-fluoro-3-(methylsulfonyl)phenyl)amino)-5-methylpyrimidin-4-yl)-1H-indol-7-yl)-3-methoxy-2-(4-methyl-1,4-diazepan-1-yl)propanamide] here?
A: 477 nM

Q: And the IC50 [2]?
A: 95 nM

Q: What about the IC50 [3] of the same compound?
A: > 30000 nM

Q: What about the IC50 [4] of the same compound?
A: > 30000 nM

Q: Which IC50 [1] does the source give for `COC[C@@H](C(=O)Nc1cccc2c(-c3nc(Nc4cccc(S(C)(=O)=O)c4F)ncc3F)c[nH]c12)N1CCCN(C)CC1` [Example 44, (S)-N-(3-(5-fluoro-2-((2-fluoro-3-(methylsulfonyl)phenyl)amino)pyrimidin-4-yl)-1H-indol-7-yl)-3-methoxy-2-(4-methyl-1,4-diazepan-1-yl)propanamide] here?
A: 3050 nM

Q: And the IC50 [2]?
A: 953 nM

Q: What about the IC50 [3] of the same compound?
A: > 30000 nM

Q: What about the IC50 [4] of the same compound?
A: > 30000 nM

Q: How did the IC50 [1] turn out when `COC[C@H](C(=O)Nc1cccc2c(-c3nc(Nc4cccc(S(C)(=O)=O)c4F)ncc3F)c[nH]c12)N1CCCN(C)CC1` [Example 45, (R)-N-(3-(5-fluoro-2-((2-fluoro-3-(methylsulfonyl)phenyl)amino)pyrimidin-4-yl)-1H-indol-7-yl)-3-methoxy-2-(4-methyl-1,4-diazepan-1-yl)propanamide] was run?
A: 36 nM

Q: What about the IC50 [2] of the same compound?
A: < 3 nM

Q: And the IC50 [3]?
A: > 30000 nM

Q: What about the IC50 [4] of the same compound?
A: 718 nM

Q: What does the source list for `C[C@H](C(=O)Nc1cccc2c(-c3nc(Nc4cccc(S(C)(=O)=O)c4F)ncc3F)c[nH]c12)N1CCCN(C)CC1` [Example 46, (R)-N-(3-(5-fluoro-2-((2-fluoro-3-(methylsulfonyl)phenyl)amino)pyrimidin-4-yl)-1H-indol-7-yl)-2-(4-methyl-1,4-diazepan-1-yl)propanamide]?
A: IC50 [1]: 83 nM; IC50 [2]: 19.8 nM; IC50 [3]: > 30000 nM; IC50 [4]: 17800 nM

Q: For `Cc1cnc(Nc2cccc(S(C)(=O)=O)c2F)nc1-c1c[nH]c2c(NC(=O)[C@H](C)N3CCN(C)C[C@H]3C)cccc12` [Example 47, (S)-2-((R)-2,4-dimethylpiperazin-1-yl)-N-(3-(2-((2-fluoro-3-(methylsulfonyl)phenyl)amino)-5-methylpyrimidin-4-yl)-1H-indol-7-yl)propanamide], which IC50 [1] is on record?
A: 619 nM

Q: And the IC50 [2]?
A: 180 nM

Q: What about the IC50 [3] of the same compound?
A: > 30000 nM

Q: And the IC50 [4]?
A: > 30000 nM

Q: `Cc1cnc(Nc2cccc(S(C)(=O)=O)c2F)nc1-c1c[nH]c2c(NC(=O)[C@@H](C)N3CCN(C)C[C@H]3C)cccc12` [Example 48, (R)-2-((R)-2,4-dimethylpiperazin-1-yl)-N-(3-(2-((2-fluoro-3-(methylsulfonyl)phenyl)amino)-5-methylpyrimidin-4-yl)-1H-indol-7-yl)propanamide] was tested. Which IC50 [1] did it give?
A: 82 nM

Q: What about the IC50 [2] of the same compound?
A: 3 nM

Q: And the IC50 [3]?
A: > 30000 nM

Q: What about the IC50 [4] of the same compound?
A: 8230 nM

Q: `COC[C@@H](C(=O)Nc1cccc2c(-c3nc(Nc4cccc(S(C)(=O)=O)c4F)ncc3C)c[nH]c12)N1CCN(C)C[C@H]1C` [Example 54, (S)-2-((R)-2,4-dimethylpiperazin-1-yl)-N-(3-(2-((2-fluoro-(methylsulfonyl)phenyl)amino)-5-methylpyrimidin-4-yl)-1H-indol-7-yl)-3-methoxypropanamide] was tested. Which IC50 [1] did it give?
A: 258 nM

Q: And the IC50 [2]?
A: 14 nM

Q: What about the IC50 [3] of the same compound?
A: > 30000 nM

Q: What about the IC50 [4] of the same compound?
A: 6720 nM

Q: Which IC50 [1] does the source give for `COC[C@H](C(=O)Nc1cccc2c(-c3nc(Nc4cccc(S(C)(=O)=O)c4F)ncc3C)c[nH]c12)N1CCN(C)C[C@H]1C` [Example 55, (R)-2-((R)-2,4-dimethylpiperazin-1-yl)-N-(3-(2-((2-fluoro-3-(methylsulfonyl)phenyl)amino)-5-methylpyrimidin-4-yl)-1H-indol-7-yl)-3-methoxypropanamide] here?
A: 26 nM

Q: And the IC50 [2]?
A: < 3 nM

Q: And the IC50 [3]?
A: > 30000 nM

Q: What about the IC50 [4] of the same compound?
A: 293 nM

Q: Which results are given for `COC[C@@H](C(=O)Nc1cccc2c(-c3nc(Nc4cccc(S(C)(=O)=O)c4F)ncc3F)c[nH]c12)N1CCN(C)C[C@H]1C` [Example 56]?
A: IC50 [1]: 745 nM; IC50 [2]: 123 nM; IC50 [3]: > 30000 nM; IC50 [4]: > 30000 nM

Q: `COC[C@H](C(=O)Nc1cccc2c(-c3nc(Nc4cccc(S(C)(=O)=O)c4F)ncc3F)c[nH]c12)N1CCN(C)C[C@H]1C` [Example 57, (R)-2-((R)-2,4-dimethylpiperazin-1-yl)-N-(3-(5-fluoro-2-((2-fluoro-3-(methylsulfonyl)phenyl)amino)pyrimidin-4-yl)-1H-indol-7-yl)-3-methoxypropanamide] was tested. Which IC50 [1] did it give?
A: 21 nM

Q: And the IC50 [2]?
A: < 3 nM

Q: What about the IC50 [3] of the same compound?
A: > 30000 nM

Q: And the IC50 [4]?
A: 709 nM

Q: For `Cc1cnc(Nc2cccc(S(C)(=O)=O)c2F)nc1-c1c[nH]c2c(NC(=O)[C@@H](C)N3CCN(C)C[C@@H]3C)cccc12` [Example 58, (R)-2-((S)-2,4-dimethylpiperazin-1-yl)-N-(3-(2-((2-fluoro-3-(methylsulfonyl)phenyl)amino)-5-methylpyrimidin-4-yl)-1H-indol-7-yl)propanamide], which IC50 [1] is on record?
A: 130 nM

Q: And the IC50 [2]?
A: 48.6 nM

Q: And the IC50 [3]?
A: > 30000 nM

Q: What about the IC50 [4] of the same compound?
A: 25300 nM

Q: Which IC50 [1] does the source give for `Cc1cnc(Nc2cccc(S(C)(=O)=O)c2F)nc1-c1c[nH]c2c(NC(=O)[C@H](C)N3CCN(C)C[C@@H]3C)cccc12` [Example 59, (S)-2-((S)-2,4-dimethylpiperazin-1-yl)-N-(3-(2-((2-fluoro-3-(methylsulfonyl)phenyl)amino)-5-methylpyrimidin-4-yl)-1H-indol-7-yl)propanamide] here?
A: > 6250 nM

Q: And the IC50 [2]?
A: 145 nM

Q: What about the IC50 [3] of the same compound?
A: > 30000 nM

Q: And the IC50 [4]?
A: > 30000 nM

Q: With `CCOC[C@H](C(=O)Nc1cccc2c(-c3nc(Nc4cccc(S(C)(=O)=O)c4F)ncc3C)c[nH]c12)N1CCN(C)CC1` [Example 62, (R)-3-ethoxy-N-(3-(2-((2-fluoro-3-(methylsulfonyl)phenyl)amino)-5-methylpyrimidin-4-yl)-1H-indol-7-yl)-2-(4-methylpiperazin-1-yl)propanamide] as the compound, how does the IC50 [1] read?
A: 54 nM

Q: And the IC50 [2]?
A: < 3 nM

Q: And the IC50 [3]?
A: > 30000 nM

Q: And the IC50 [4]?
A: 4140 nM

Q: Which IC50 [1] does the source give for `Cc1cnc(Nc2cccc(S(C)(=O)=O)c2F)nc1-c1c[nH]c2c(NC(=O)[C@@H](COCc3ccccc3)N3CCN(C)CC3)cccc12` [Example 64, (R)-3-(benzyloxy)-N-(3-(2-((2-fluoro-3-(methylsulfonyl)phenyl)amino)-5-methylpyrimidin-4-yl)-1H-indol-7-yl)-2-(4-methylpiperazin-1-yl)propanamide] here?
A: 26 nM

Q: What about the IC50 [2] of the same compound?
A: < 30 nM

Q: What about the IC50 [3] of the same compound?
A: > 30000 nM

Q: What about the IC50 [4] of the same compound?
A: 910 nM

Q: For `Cc1cnc(Nc2cccc(S(C)(=O)=O)c2F)nc1-c1c[nH]c2c(NC(=O)[C@H](COCc3ccccc3)N3CCN(C)CC3)cccc12` [Example 65, (S)-3-(benzyloxy)-N-(3-(2-((2-fluoro-3-(methylsulfonyl)phenyl)amino)-5-methylpyrimidin-4-yl)-1H-indol-7-yl)-2-(4-methylpiperazin-1-yl)propanamide], which IC50 [1] is on record?
A: 508 nM

Q: What about the IC50 [2] of the same compound?
A: 73 nM

Q: What about the IC50 [3] of the same compound?
A: > 30000 nM

Q: What about the IC50 [4] of the same compound?
A: > 30000 nM
